Laboratory results published in ChEMBL document CHEMBL4052645, “Discovery of potent and efficacious pyrrolopyridazines as dual JAK1/3 inhibitors” (Bioorg Med Chem Lett, 2017).

Legend:
[1] = biological target: NUAK family SNF1-like kinase 1 (Homo sapiens) (UniProt O60285); assay: Inhibition of human NUAK1 (25 to I332 residues) expressed in bacterial expression system assessed as residual activity at 50 nM by KINOMEscan assay relative to control
[2] = biological target: Serine/threonine-protein kinase N1 (Homo sapiens) (UniProt Q16512); assay: Inhibition of human PKN1 (E598 to C948 residues) expressed in bacterial expression system assessed as residual activity at 50 nM by KINOMEscan assay relative to control
[3] = biological target: Epidermal growth factor receptor (Homo sapiens) (UniProt P00533); assay: Inhibition of wild-type human partial length EGFR (R669 to V1011 residues) expressed in bacterial expression system assessed as residual activity at 50 nM by Kinomescan method relative to control
[4] = biological target: Serine/threonine-protein kinase DCLK3 (Homo sapiens) (UniProt Q9C098); assay: Inhibition of wild-type human partial length DCAMKL3 (E140 to V628 residues) expressed in bacterial expression system assessed as residual activity at 50 nM by Kinomescan method relative to control
[5] = biological target: Uncharacterized serine/threonine-protein kinase SBK3 (Homo sapiens) (UniProt P0C264); assay: Inhibition of wild-type human partial length SGK110 (L22 to R329 residues) expressed in bacterial expression system assessed as residual activity at 50 nM by Kinomescan method relative to control
[6] = biological target: Aurora kinase C (Homo sapiens) (UniProt Q9UQB9); assay: Inhibition of wild-type human full length AURC (M1 to S275 residues) expressed in bacterial expression system assessed as residual activity at 50 nM by Kinomescan method relative to control
[7] = biological target: Serine/threonine-protein kinase TAO1 (Homo sapiens) (UniProt Q7L7X3); assay: Inhibition of wild-type human partial length TAO1 (M1 to A320 residues) expressed in mammalian expression system assessed as residual activity at 50 nM by Kinomescan method relative to control
Serine/threonine-protein kinase TAO1 (Homo sapiens), sequence (Q7L7X3 whole entry, the tested form may be a part): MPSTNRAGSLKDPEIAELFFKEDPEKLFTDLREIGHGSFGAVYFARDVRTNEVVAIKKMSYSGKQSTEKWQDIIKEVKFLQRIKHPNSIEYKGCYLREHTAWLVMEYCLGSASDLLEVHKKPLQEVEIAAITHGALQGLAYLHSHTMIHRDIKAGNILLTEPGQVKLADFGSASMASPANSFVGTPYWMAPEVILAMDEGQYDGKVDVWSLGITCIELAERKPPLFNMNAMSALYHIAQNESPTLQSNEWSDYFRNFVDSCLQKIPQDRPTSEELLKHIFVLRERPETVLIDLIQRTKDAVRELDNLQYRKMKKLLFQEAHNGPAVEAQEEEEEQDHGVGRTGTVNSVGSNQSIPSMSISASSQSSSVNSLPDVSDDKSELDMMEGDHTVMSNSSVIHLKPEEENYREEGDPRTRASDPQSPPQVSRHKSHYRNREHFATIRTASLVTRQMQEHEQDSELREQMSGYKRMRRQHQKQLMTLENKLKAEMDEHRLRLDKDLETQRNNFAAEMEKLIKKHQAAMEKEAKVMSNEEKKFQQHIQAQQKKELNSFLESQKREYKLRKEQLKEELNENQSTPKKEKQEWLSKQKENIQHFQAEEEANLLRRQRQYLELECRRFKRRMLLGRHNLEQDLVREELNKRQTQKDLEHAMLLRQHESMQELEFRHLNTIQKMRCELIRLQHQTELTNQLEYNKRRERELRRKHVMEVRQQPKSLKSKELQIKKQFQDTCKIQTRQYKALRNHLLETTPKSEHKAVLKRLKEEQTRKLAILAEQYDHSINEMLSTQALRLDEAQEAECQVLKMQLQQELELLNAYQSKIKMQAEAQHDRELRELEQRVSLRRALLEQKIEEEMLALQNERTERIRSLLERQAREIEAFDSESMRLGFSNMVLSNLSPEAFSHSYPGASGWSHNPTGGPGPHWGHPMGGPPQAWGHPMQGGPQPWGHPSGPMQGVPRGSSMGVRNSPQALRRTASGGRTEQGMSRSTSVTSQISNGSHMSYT

[8] = biological target: Macrophage colony-stimulating factor 1 receptor (Homo sapiens) (UniProt P07333); assay: Inhibition of wild-type human partial length FMS (I564 to S939 residues) expressed in bacterial expression system assessed as residual activity at 50 nM by Kinomescan method relative to control
Macrophage colony-stimulating factor 1 receptor (Homo sapiens), sequence (P07333 whole entry, the tested form may be a part): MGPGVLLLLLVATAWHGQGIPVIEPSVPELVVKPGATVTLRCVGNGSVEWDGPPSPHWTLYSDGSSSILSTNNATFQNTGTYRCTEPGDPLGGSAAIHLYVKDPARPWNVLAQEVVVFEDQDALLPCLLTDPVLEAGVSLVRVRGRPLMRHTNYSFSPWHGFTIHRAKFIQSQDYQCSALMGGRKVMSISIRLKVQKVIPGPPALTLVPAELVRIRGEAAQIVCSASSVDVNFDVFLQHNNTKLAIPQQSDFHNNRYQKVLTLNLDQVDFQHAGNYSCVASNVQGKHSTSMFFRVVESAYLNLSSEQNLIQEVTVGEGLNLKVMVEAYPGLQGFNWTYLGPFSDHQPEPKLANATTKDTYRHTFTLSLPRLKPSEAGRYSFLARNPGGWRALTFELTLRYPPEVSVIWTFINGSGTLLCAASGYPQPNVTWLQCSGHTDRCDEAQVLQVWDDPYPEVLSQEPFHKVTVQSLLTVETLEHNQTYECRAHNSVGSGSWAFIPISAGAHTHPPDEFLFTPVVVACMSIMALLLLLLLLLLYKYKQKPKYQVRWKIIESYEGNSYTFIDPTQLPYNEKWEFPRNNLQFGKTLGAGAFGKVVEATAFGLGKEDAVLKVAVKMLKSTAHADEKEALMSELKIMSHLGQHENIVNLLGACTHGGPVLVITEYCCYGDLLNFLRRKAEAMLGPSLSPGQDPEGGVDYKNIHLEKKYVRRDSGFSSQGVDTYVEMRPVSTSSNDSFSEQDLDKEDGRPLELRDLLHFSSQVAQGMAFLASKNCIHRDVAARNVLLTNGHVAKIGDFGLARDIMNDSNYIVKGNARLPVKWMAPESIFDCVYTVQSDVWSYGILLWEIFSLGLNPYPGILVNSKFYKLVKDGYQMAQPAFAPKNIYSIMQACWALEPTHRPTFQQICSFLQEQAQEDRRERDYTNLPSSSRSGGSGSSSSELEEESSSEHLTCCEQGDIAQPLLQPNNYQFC

[9] = biological target: Tyrosine-protein kinase Srms (Homo sapiens) (UniProt Q9H3Y6); assay: Inhibition of wild-type human partial length SRMS (L208 to P488 residues) expressed in mammalian expression system assessed as residual activity at 50 nM by Kinomescan method relative to control
[10] = biological target: Ephrin type-A receptor 3 (Homo sapiens) (UniProt P29320); assay: Inhibition of wild-type human partial length EPHA3 (D604 to K889 residues) expressed in bacterial expression system assessed as residual activity at 50 nM by Kinomescan method relative to control
Ephrin type-A receptor 3 (Homo sapiens), sequence (P29320 whole entry, the tested form may be a part): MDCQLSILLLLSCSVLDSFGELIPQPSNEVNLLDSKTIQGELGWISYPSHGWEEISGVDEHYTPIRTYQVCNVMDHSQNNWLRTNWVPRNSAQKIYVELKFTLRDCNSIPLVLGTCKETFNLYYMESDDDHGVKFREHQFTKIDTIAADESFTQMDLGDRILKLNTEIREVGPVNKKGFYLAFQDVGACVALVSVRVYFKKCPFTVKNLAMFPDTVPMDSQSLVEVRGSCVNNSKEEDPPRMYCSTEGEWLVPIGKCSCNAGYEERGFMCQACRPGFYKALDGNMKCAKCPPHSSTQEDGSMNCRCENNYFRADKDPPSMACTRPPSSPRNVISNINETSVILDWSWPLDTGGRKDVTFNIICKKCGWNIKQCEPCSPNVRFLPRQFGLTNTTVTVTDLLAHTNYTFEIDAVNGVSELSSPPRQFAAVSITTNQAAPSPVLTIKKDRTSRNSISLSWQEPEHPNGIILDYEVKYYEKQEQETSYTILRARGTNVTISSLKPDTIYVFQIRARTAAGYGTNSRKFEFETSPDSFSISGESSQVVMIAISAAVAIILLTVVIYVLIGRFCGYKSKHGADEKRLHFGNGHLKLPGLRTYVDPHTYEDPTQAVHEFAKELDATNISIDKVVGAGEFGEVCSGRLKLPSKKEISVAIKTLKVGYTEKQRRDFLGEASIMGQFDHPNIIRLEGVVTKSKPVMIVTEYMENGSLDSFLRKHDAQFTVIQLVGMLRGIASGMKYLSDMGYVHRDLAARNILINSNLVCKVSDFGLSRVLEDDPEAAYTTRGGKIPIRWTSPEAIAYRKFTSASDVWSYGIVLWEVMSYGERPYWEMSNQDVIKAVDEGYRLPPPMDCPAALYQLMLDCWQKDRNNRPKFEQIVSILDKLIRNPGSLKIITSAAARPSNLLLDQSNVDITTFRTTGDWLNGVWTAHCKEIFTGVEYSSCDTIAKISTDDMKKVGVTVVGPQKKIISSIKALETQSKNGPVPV

[11] = biological target: Receptor tyrosine-protein kinase erbB-2 (Homo sapiens) (UniProt P04626); assay: Inhibition of wild-type human partial length ERBB2 (K646 to V1225 residues) expressed in mammalian expression system assessed as residual activity at 50 nM by Kinomescan method relative to control
[12] = biological target: Death-associated protein kinase 3 (Homo sapiens) (UniProt O43293); assay: Inhibition of wild-type human partial length DAPK3 (M1 to A277 residues) expressed in bacterial expression system assessed as residual activity at 50 nM by Kinomescan method relative to control
[13] = biological target: Calcium/calmodulin-dependent protein kinase type II subunit gamma (Homo sapiens) (UniProt Q13555); assay: Inhibition of wild-type human partial length CAMK2G (R9 to A303 residues) expressed in bacterial expression system assessed as residual activity at 50 nM by Kinomescan method relative to control
[14] = biological target: Bone morphogenetic protein receptor type-2 (Homo sapiens) (UniProt Q13873); assay: Inhibition of wild-type human partial length BMPR2 (R179 to Q526 residues) expressed in mammalian expression system assessed as residual activity at 50 nM by Kinomescan method relative to control
Bone morphogenetic protein receptor type-2 (Homo sapiens), sequence (Q13873 whole entry, the tested form may be a part): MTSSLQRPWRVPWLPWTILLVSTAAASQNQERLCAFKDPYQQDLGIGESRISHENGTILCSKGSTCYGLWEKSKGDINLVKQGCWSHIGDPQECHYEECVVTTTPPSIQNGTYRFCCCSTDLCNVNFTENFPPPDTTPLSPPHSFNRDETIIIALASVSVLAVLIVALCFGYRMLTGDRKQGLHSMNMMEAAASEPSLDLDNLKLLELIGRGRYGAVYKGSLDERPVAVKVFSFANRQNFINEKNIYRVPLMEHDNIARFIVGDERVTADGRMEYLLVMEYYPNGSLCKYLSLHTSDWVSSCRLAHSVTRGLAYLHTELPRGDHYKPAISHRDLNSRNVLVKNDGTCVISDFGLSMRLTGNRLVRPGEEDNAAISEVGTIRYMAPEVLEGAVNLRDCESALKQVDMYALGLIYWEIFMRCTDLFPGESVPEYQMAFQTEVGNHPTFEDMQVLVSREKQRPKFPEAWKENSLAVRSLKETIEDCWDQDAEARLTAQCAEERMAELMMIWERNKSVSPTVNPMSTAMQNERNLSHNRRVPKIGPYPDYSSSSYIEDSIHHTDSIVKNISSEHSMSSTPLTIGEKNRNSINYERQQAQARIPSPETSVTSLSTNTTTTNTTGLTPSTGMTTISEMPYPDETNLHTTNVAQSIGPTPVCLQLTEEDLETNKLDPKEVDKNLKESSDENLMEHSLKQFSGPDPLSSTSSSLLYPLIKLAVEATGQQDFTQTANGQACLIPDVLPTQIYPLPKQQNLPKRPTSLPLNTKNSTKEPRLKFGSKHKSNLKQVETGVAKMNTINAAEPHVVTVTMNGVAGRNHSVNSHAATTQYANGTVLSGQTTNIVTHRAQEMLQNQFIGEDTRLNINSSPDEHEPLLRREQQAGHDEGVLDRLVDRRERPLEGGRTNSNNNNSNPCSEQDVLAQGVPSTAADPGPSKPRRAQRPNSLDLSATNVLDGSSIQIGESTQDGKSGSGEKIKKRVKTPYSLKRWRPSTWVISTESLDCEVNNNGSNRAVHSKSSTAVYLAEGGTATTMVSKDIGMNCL

[15] = biological target: Interleukin-1 receptor-associated kinase 1 (Homo sapiens) (UniProt P51617); assay: Inhibition of wild-type human partial length IRAK1 (R194 to S712 residues) expressed in mammalian expression system assessed as residual activity at 50 nM by Kinomescan method relative to control
[16] = biological target: Casein kinase I isoform delta (Homo sapiens) (UniProt P48730); assay: Inhibition of wild-type human full length CK1D (M1 to K409 residues) expressed in bacterial expression system assessed as residual activity at 50 nM by Kinomescan method relative to control
Casein kinase I isoform delta (Homo sapiens), sequence (P48730 whole entry, looked up, the tested form may be a part, canonical isoform): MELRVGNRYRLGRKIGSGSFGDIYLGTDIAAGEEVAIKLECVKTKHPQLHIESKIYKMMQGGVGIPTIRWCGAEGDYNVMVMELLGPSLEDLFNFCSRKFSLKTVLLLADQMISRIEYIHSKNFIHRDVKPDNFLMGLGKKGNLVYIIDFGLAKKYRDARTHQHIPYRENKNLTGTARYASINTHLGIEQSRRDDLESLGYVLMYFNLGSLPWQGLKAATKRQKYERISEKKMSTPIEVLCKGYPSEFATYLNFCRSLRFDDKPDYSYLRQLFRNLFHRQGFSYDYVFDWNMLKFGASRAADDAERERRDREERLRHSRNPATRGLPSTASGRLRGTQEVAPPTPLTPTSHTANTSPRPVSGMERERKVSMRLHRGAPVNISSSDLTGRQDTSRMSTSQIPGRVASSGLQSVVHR

[17] = biological target: Tyrosine-protein kinase ABL1 (Homo sapiens) (UniProt P00519); assay: Inhibition of wild-type human non-phosphorylated ABL1 (S229 to K512 residues) expressed in mammalian expression system assessed as residual activity at 50 nM by Kinomescan method relative to control
[18] = biological target: RAC-beta serine/threonine-protein kinase (Homo sapiens) (UniProt P31751); assay: Inhibition of wild-type human partial length AKT2 expressed in bacterial expression system assessed as residual activity at 50 nM by Kinomescan method relative to control
[19] = biological target: Calcium/calmodulin-dependent protein kinase type 1D (Homo sapiens) (UniProt Q8IU85); assay: Inhibition of wild-type human partial length CAMK1D (M1 to K299 residues) expressed in bacterial expression system assessed as residual activity at 50 nM by Kinomescan method relative to control
[20] = biological target: Serine/threonine-protein kinase Chk2 (Homo sapiens) (UniProt O96017); assay: Inhibition of wild-type human partial length CHK2 (S253 to E574 residues) expressed in bacterial expression system assessed as residual activity at 50 nM by Kinomescan method relative to control
[21] = biological target: Tyrosine-protein kinase CSK (Homo sapiens) (UniProt P41240); assay: Inhibition of wild-type human full length CSK (M1 to L450 residues) expressed in bacterial expression system assessed as residual activity at 50 nM by Kinomescan method relative to control
Tyrosine-protein kinase CSK (Homo sapiens), sequence (P41240 2-450 limits assumed): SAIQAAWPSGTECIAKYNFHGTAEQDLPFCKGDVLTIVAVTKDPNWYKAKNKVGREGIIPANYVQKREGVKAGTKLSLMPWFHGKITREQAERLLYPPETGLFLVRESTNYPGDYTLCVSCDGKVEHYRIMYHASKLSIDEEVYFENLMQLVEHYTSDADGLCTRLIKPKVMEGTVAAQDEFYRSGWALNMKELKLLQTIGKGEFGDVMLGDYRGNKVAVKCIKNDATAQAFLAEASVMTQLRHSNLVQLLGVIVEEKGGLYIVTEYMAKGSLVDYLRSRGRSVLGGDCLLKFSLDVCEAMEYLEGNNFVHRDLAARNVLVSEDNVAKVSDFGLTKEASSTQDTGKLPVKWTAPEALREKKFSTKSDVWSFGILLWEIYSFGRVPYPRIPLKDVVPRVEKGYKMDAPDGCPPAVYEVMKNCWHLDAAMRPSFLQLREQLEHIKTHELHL

[22] = biological target: Vascular endothelial growth factor receptor 3 (Homo sapiens) (UniProt P35916); assay: Inhibition of wild-type human partial length FLT4 (E821 to E1196 residues) expressed in bacterial expression system assessed as residual activity at 50 nM by Kinomescan method relative to control
[23] = biological target: Interferon-induced, double-stranded RNA-activated protein kinase (Homo sapiens) (UniProt P19525); assay: Inhibition of wild-type human partial length PKR (F247 to C551 residues) expressed in bacterial expression system assessed as residual activity at 50 nM by Kinomescan method relative to control
[24] = biological target: Serine/threonine-protein kinase PLK2 (Homo sapiens) (UniProt Q9NYY3); assay: Inhibition of wild-type human partial length PLK2 (H58 to F354 residues) expressed in mammalian expression system assessed as residual activity at 50 nM by Kinomescan method relative to control
[25] = biological target: NT-3 growth factor receptor (Homo sapiens) (UniProt Q16288); assay: Inhibition of wild-type human partial length TRKC (Q531 to G825 residues) expressed in mammalian expression system assessed as residual activity at 50 nM by Kinomescan method relative to control

SMILES | Activity [1] [%] | Activity [2] [%] | Activity [3] [%] | Activity [4] [%] | Activity [5] [%] | Activity [6] [%] | Activity [7] [%] | Activity [8] [%] | Activity [9] [%] | Activity [10] [%] | Activity [11] [%] | Activity [12] [%] | Activity [13] [%] | Activity [14] [%] | Activity [15] [%] | Activity [16] [%] | Activity [17] [%] | Activity [18] [%] | Activity [19] [%] | Activity [20] [%] | other results
CC1(C)[C@H](Nc2c(C(N)=O)cnn3cc(-c4ccccc4)cc23)CC[C@]1(C)N | 2 | 0.3 | 30 | 39 | 41 | 42 | 54 | 57 | 64 | 65 | 76 | 90 | 91 | 93 | 94 | 98 | 100 | 100 | 100 | 100 | Activity [21]: 100%; Activity [22]: 100%; Activity [23]: 100%; Activity [24]: 100%; Activity [25]: 100%
COc1ccc(-c2cc3c(N[C@@H]4CC[C@](C)(N)C4(C)C)c(C(N)=O)cnn3c2)cn1 | 6 | 7 | 100 | 64 | 62 | 82 | 59 | 74 | 94 | 88 | 99 | 97 | 90 | 100 | 100 | 100 | 90 | 88 | 100 | 100 | Activity [21]: 100%; Activity [22]: 86%; Activity [23]: 99%; Activity [24]: 100%; Activity [25]: 100%
